Results published in article PMC12455078, “Synthesis, pharmacokinetic studies, and metabolite analysis of meridianin C in rats using a validated ultra high performance liquid chromatography-tandem mass spectrometry method” (Frontiers in Pharmacology, 2025).

Experiments:
[1] = Pharmacokinetics of MC and its metabolites in rat plasma after a single oral dose of MC (UHPLC-MS/MS); format: in vivo, Sprague Dawley rats; conditions: for Tmax / half-life / Cmax / AUC(0-t): male, Sprague Dawley, single oral (intragastric) 100 mg/kg MC; for Tmax / half-life: n = 6; for Cmax: n = 6, metabolites quantified with the MC calibration curve; for AUC(0-t): n = 6, non-compartmental, metabolites quantified with the MC calibration curve, read-out: AUC0–48h; for AUC0–48h fold less than that of MC / Concentration in plasma samples relative to limit of quantification: single oral 100 mg/kg MC
Protocol: Sprague Dawley rats (male, 220–250 g) were purchased from the SPF Biotechnology Co., Ltd. (Beijing, China). Animals were acclimated under controlled conditions (temperature 22 °C ± 2 °C, humidity 50%–60%, 12 h light cycle) with unlimited fodder and water access for 7 days. The animal experiments were approved by the Animal Experiment Ethics Review Committee of Jiangsu Vocational College of Medicine, Yancheng, China (LLSQ-2021-031106).
After fasting overnight, six rats were orally administered 100 mg/kg MC suspended in 0.5% carboxymethyl cellulose sodium solution (10.0 mg/mL). Blood samples (about 300 μL) were collected into heparinized polythene tubes from the suborbital vein at 0, 0.25, 0.5, 1, 2, 3, 4, 8, 12, 24, 36 and 48 h after administration. All samples were immediately centrifuged at 6,125 g for 5 min at 4 °C to acquire plasma. The plasma samples were preserved at − 80 °C until further analysis.
For the measurement of the concentrations of MC and its metabolites, three times volume of methanol, containing 20 µL IS (puerarin, 2,160.0 ng/mL), were added to 100 µL plasma samples to precipitate protein. After vortexing for 2 min, the mixtures were centrifuged at 6,125 g for 10 min at 4 °C. The obtained supernatants were transferred to fresh tubes and allowed to be dried at room temperature by a nitrogen blowing instrument. Then, the remaining residues were re-dissolved with 100 µL methanol–water (80:20, v/v). Following centrifugation at 16,173 g for 10 min, the supernatants were transferred and used for UHPLC/[…] assessment. The injection volume of each sample was 1 μL.
The UHPLC-MS system comprised of an Acquity UPLC system (Waters, Milford, United States) and Waters TQD tandem mass spectrometer equipped with an electrospray ionization (ESI) source. A Waters ACQUITY BEH C18 column (100 × 2.1 mm, 1.7 μm, Waters, Milford, United States) was used for the chromatography separation. The column temperature was set to 40 °C. The mobile phase was composed of 0.1% formic acid in water (A) and 0.1% formic acid in acetonitrile (B) with a fixed flow rate at 0.4 mL/min. A gradient elution program was used as follows: 0–1.5 min, 5%–20% B; 1.5–5 min, 20%–30% B; 5–7 min, 30%–95% B; 7–9 min, 95% B; 9–11 min, 95% B.
The MS tune parameters were set as mentioned below. The desolvation of the source temperatures was set at 500 °C. The flow rate of nebulization gas was 650 L/h. The capillary voltage was set at 2.8 kV in the positive ionization mode. The cone voltages were maintained at 35 V for all the tested ingredients. All data were obtained via the multiple reaction monitoring (MRM) ion mode. The range of m/z for the data collection was set at 100–1,500 Da. Transitions, cone voltage and a collision energy of MC and its metabolites were optimized (Table 2). The mass spectrum of MC and the chemical structures of its MS/MS fragments is shown in Figure 4, and The mass spectrum of puerarin and the chemical structures of its MS/MS fragments is shown in Figure 5. MassLynx™ software version 4.1 was used for data acquisition and TargetLynx™ (Waters, Milford, MA, United States) was applied to quantitation.
The concentrations of MC in the collected plasma samples were quantified by the established calibration curve based on peak areas of corresponding components. Owing to the lack of corresponding standards, calibration curves for the metabolites were not established. It has been reported that the concentrations of the metabolites could be quantified according to calibration curve of parent drug. This is possible due to the structural similarity of their parent nucleus ([Zhang et al., 2015]). Therefore, in this study, the concentrations of the metabolites were calculated via the calibration curve of MC. The main pharmacokinetic parameters of MC and its metabolites were calculated via a non-compartmental model with the pharmacokinetic software, DAS (ver. 2.0, Chinese Pharmacology Association, Shanghai, China). […]

[2] = Stability of MC in rat plasma QC samples under storage conditions; format: in vitro ADME; conditions: for Stability (re, %) 20 °C–25 °C/24 h / Stability (re, %) −20 °C/30 days / Stability (re, %) Freeze-thaw (3 cycles): n = 3; for Stability (re, %) Freeze-thaw (3 cycles): −20 °C to ambient temperature
Protocol: MC, accurately weighted, was firstly dissolved in methanol to acquire the standard stock solutions (250 μg/mL). A set of standard working solutions (25,000.0 ng/mL, 12,500.0 ng/mL, 2,500.0 ng/mL, 1,250.0 ng/mL, 625.0 ng/mL, 250.0 ng/mL, 125.0 ng/mL, 31.25 ng/mL) were obtained by diluting the stock solutions with methanol. An aliquot of 20 µL of these standard working solutions was then spiked into 1.5 mL polythene tubes and the solvent of methanol was evaporated at room temperature. Afterwards, the calibration standards (5,000.0 ng/mL, 2,500.0 ng/mL, 500.0 ng/mL, 250.0 ng/mL, 125.0 ng/mL, 50.0 ng/mL, 25.0 ng/mL, 6.25 ng/mL) were obtained by adding blank plasma (100 µL) into the tubes and fully mixing. The preparation method of quality control samples (QCs, 25.0 ng/mL, 1,250.0 ng/mL, 4,000.0 ng/mL) was identical with that of the calibration standards. All solutions were stored at 4 °C until further use.
All method validation procedures were performed strictly in accordance with the US FDA Guidance for Industry on Bioanalytical Method Validation ([FDA, 2018]). The assessment of selectivity was performed via comparing chromatograms among blank rat plasma (six different batches) and rat plasma spiked with MC and IS. The evaluation of linearity was carried out using weighted (1/x^2) least-squares analysis of two sets of calibration standards. Three different concentrations of Quality Check: QCs (n = 6) standards were used and detected on three different days to evaluate the intra-day and inter-day precision and the accuracy. Similarly, matrix effect and extraction recovery were assessed using three different concentrations of QCs (n = 6). The matrix effect was evaluated via calculating the peak area ratio of MC in post-spiked QCs and the solvent-substituted samples with same concentration. The extraction recovery was assessed via calculating the peak area ratio of MC in pre-spiked and post-spiked QCs. The stability of MC was examined using three concentrations of QCs (n = 3) under three different storage conditions, including freeze-thaw stability (three cycles from −20 °C to ambient temperature), short-term stability (storage at 20 °C–25 °C for 24 h), and long-term stability (storage at −20 °C for 30 days).
The stability was estimated by analyzing QCs (25.0, 1,250.0, and 4,000.0 ng/mL) after storing in three different conditions: three freeze-thaw cycles (−20 °C to ambient temperature), 20 °C–25 for 24 h, and - 20 °C for 30 days. As presented in Table 5, the deviations in the stabilities of MC ranged from - 8.5% to 13.5% under the three different storage conditions.

[3] = parameters: method as in Hasa et al., 2013; conditions: ref Hasa et al., 2013; cited from earlier work

| Tmax [1] | half-life [1] | Cmax [1] | AUC(0-t) [1] | AUC0–48h fold less than that of MC [1] | Concentration in plasma samples relative to limit of quantification [1] | Compound | other results |
| --- | --- | --- | --- | --- | --- | --- | --- |
| 0.88 ± 0.63 h | 3.4 ± 2.2 h | 1.6 ± 0.6 µM | 4 ± 1.1 µM·h | 58.7 fold |  | O=S(=O)(O)ONc1nccc(-c2c[nH]c3ccc(Br)cc23)n1 [M11] |  |
| 0.75 ± 0.27 h | 17.7 ± 14.1 h | 44.8 ± 7 µM | 232 ± 85.9 µM·h |  |  | Nc1nccc(-c2c[nH]c3ccc(Br)cc23)n1 [MC, Meridianin C] | Stability (re, %) 20 °C–25 °C/24 h ([2]; rat plasma, 25.0 ng/mL): 12.5%; Stability (re, %) −20 °C/30 days ([2]; rat plasma, 25.0 ng/mL): 10.6%; Stability (re, %) Freeze-thaw (3 cycles) ([2]; rat plasma, 25.0 ng/mL): 13.5%; Stability (re, %) 20 °C–25 °C/24 h ([2]; rat plasma, 1,250.0 ng/mL): 7.9%; Stability (re, %) −20 °C/30 days ([2]; rat plasma, 1,250.0 ng/mL): 5.2%; Stability (re, %) Freeze-thaw (3 cycles) ([2]; rat plasma, 1,250.0 ng/mL): 12.6%; Stability (re, %) 20 °C–25 °C/24 h ([2]; rat plasma, 4,000.0 ng/mL): −6.8%; Stability (re, %) −20 °C/30 days ([2]; rat plasma, 4,000.0 ng/mL): −8.5%; Stability (re, %) Freeze-thaw (3 cycles) ([2]; rat plasma, 4,000.0 ng/mL): 9.3%; Stability in rat plasma (in words) ([2]; three freeze-thaw cycles, 20 °C–25 °C for 24 h, −20 °C for 30 days): stable |

Further lines, the molecule ahead of its results:

| Compound | Tmax [1] | half-life [1] | Cmax [1] | AUC(0-t) [1] | AUC0–48h fold less than that of MC [1] | Concentration in plasma samples relative to limit of quantification [1] | other results |
| --- | --- | --- | --- | --- | --- | --- | --- |
| Nc1nccc(-c2cn(OS(=O)(=O)O)c3ccc(Br)cc23)n1 [M2] | 0.5 ± 0.27 h | 4.4 ± 2.7 h | 6.4 ± 2 µM | 20.9 ± 8.5 µM·h | 11.1 fold |  |  |
| Nc1nccc(-c2cn(O)c3ccc(Br)cc23)n1 [M3] |  |  |  |  |  | lower than the limit of quantification |  |
| ONc1nccc(-c2cn(O)c3ccc(Br)cc23)n1 [M8] |  |  |  |  |  | lower than the limit of quantification |  |
| CC[C@]12CCCN3CCc4c(n(c5ccccc45)[C@@](O)(C(=O)OC)C1)[C@@H]32 [vincamine] |  |  |  |  |  |  | Bioavailability [3]: low bioavailability |
